The numbers were not newly measured in PubChem BioAssay AID1259409 (Chemical Carcinogenesis Research Information System (CCRIS), 2018), which cites them from elsewhere.

This data set concerns rodent chemically induced tumor inhibition, incidence and multiplicity. Put plainly: CCRIS tumor inhibitor studies.

With `CC1=C[C@H]2O[C@@H]3[C@H](O)[C@@H](O)[C@](C)([C@@]2(CO)[C@H](O)C1=O)[C@]31CO1`, the “tumour outcome (control, treated, inhibition, significance)” value is, setting by setting: (Dose [Inhibitor]: 0, 6 PPM IN DIET BEGINNING 6 WK POST CARCINOGEN DOSE AND CONTINUING FOR 65 WK (STUDY DURATION: 65 WK), Route [Inhibitor]: ORAL, Species: MOUSE, Strain/Sex: B6C3F1/FEMALE, Target Tissue: Type of Lesion: LIVER: TUMOR, Dose [Carcinogen]: 6 MG/KG ONCE, Promoter: NONE USED) 8/26 (31%), 3/15 (20%), 35%, not significant; (Dose [Inhibitor]: 0, 6 PPM IN PELLET DIET FOR 1 YR BEGINNING 7 WK POST CARCINOGEN (STUDY DURATION: 60 WK), Route [Inhibitor]: ORAL, Species: MOUSE, Strain/Sex: B6C3F1/FEMALE, Target Tissue: Type of Lesion: LIVER: HEPATOCELLULAR ADENOMA, Dose [Carcinogen]: 6 MG/KG ONCE) 6/26 (23%), 1/15 (7%), 70%, not calculated; (Dose [Inhibitor]: 0, 6 PPM IN PELLET DIET FOR 1 YR BEGINNING 7 WK POST CARCINOGEN (STUDY DURATION: 60 WK), Route [Inhibitor]: ORAL, Species: MOUSE, Strain/Sex: B6C3F1/FEMALE, Target Tissue: Type of Lesion: LIVER: HEPATOCELLULAR TUMOR, Dose [Carcinogen]: 6 MG/KG ONCE) 8/26 (31%), 3/15 (20%), 35%, not significant; (Dose [Inhibitor]: 0, 12 PPM IN DIET BEGINNING 6 WK POST CARCINOGEN DOSE AND CONTINUING FOR 65 WK (STUDY DURATION: 65 WK), Route [Inhibitor]: ORAL, Species: MOUSE, Strain/Sex: B6C3F1/FEMALE, Target Tissue: Type of Lesion: LIVER: TUMOR, Dose [Carcinogen]: 6 MG/KG ONCE, Promoter: NONE USED) 8/26 (31%), 0/19 (0%), 100%, p<0.01; (Dose [Inhibitor]: 0, 12 PPM IN DIET BEGINNING 6 WK POST CARCINOGEN DOSE AND CONTINUING FOR 65 WK (STUDY DURATION: 65 WK), Route [Inhibitor]: ORAL, Species: MOUSE, Strain/Sex: B6C3F1/MALE, Target Tissue: Type of Lesion: LIVER: TUMOR, Dose [Carcinogen]: 6 MG/KG ONCE, Promoter: NONE USED) 19/19 (100%), 18/18 (100%), 0%, not significant; (Dose [Inhibitor]: 0, 12 PPM IN DIET FOR 1 YR BEGINNING 7 WK POST CARCINOGEN (STUDY DURATION: 60 WK), Route [Inhibitor]: ORAL, Species: MOUSE, Strain/Sex: B6C3F1/MALE, Target Tissue: Type of Lesion: LIVER: HEPATOCELLULAR CARCINOMA, Dose [Carcinogen]: 6 MG/KG ONCE) 17/19 (89%), 15/18 (83%), 7%, not calculated. The “tumour outcome (control, treated, inhibition, significance)” value reads like this: (Dose [Inhibitor]: 0, 12 PPM IN PELLET DIET FOR 1 YR BEGINNING 7 WK POST CARCINOGEN (STUDY DURATION : 60 WK), Route [Inhibitor]: ORAL, Species: MOUSE, Strain/Sex: B6C3F1/FEMALE, Target Tissue: Type of Lesion: LIVER: HEPATOCELLULAR ADENOMA, Dose [Carcinogen]: 6 MG/KG ONCE) 6/26 (23%), 0/19 (0%), 100%, not calculated; (Dose [Inhibitor]: 0, 12 PPM IN PELLET DIET FOR 1 YR BEGINNING 7 WK POST CARCINOGEN (STUDY DURATION : 60 WK), Route [Inhibitor]: ORAL, Species: MOUSE, Strain/Sex: B6C3F1/FEMALE, Target Tissue: Type of Lesion: LIVER: HEPATOCELLULAR CARCINOMA, Dose [Carcinogen]: 6 MG/KG ONCE) 1/26 (4%), 0/19 (0%), 100%, not calculated; (Dose [Inhibitor]: 0, 12 PPM IN PELLET DIET FOR 1 YR BEGINNING 7 WK POST CARCINOGEN (STUDY DURATION : 60 WK), Route [Inhibitor]: ORAL, Species: MOUSE, Strain/Sex: B6C3F1/FEMALE, Target Tissue: Type of Lesion: LIVER: HEPATOCELLULAR TUMOR, Dose [Carcinogen]: 6 MG/KG ONCE) 8/26 (31%), 0/19 (0%), 100%, p<0.01; (Dose [Inhibitor]: 0, 12 PPM IN PELLET FOR 1 YR BEGINNING 7 WK POST CARCINOGEN (STUDY DURATION: 60 WK), Route [Inhibitor]: ORAL, Species: MOUSE, Strain/Sex: B6C3F1/MALE, Target Tissue: Type of Lesion: LIVER: HEPATOCELLULAR TUMOR, Dose [Carcinogen]: 6 MG/KG ONCE) 19/19 (100%), 18/18 (100%), 0%, not significant.
In the case of `O=C1CC(C(=O)O)C(C(=O)O)O1` (stereo not drawn), the “tumour outcome (control, treated, inhibition, significance)” value (Carcinogen: BENZO[A]PYRENE, 50-32-8, Dose [Inhibitor]: 0.034 MMOL/G IN DIET FOR 5 WK BEGINNING 1 WK PRIOR TO FIRST CARCINOGEN DOSE AND CONTINUING FOR 3 D POST LAST CARCINOGEN, Route [Inhibitor]: ORAL, Species: MOUSE, Strain/Sex: ICR/HA/FEMALE, Target Tissue: Type of Lesion: FORESTOMACH: TUMOR, Dose [Carcinogen]: 1 MG IN 0.2 ML CORN OIL 2/WK FOR 4 WK STARTING, Promoter: NONE USED) is recorded as 100%, 100%, 0%, not significant.
For the compound `CC1=C(/C=C/C(C)=C/C=C/C(C)=C\C(=O)Nc2nn[nH]n2)C(C)(C)CCC1`, the “tumour outcome (control, treated, inhibition, significance)” value was 29/98 (30%), 26/100 (26%), 13%, not significant (Carcinogen: N-BUTYL-N-(4-HYDROXYBUTYL)NITROSAMINE, 3817-11-6, Dose [Inhibitor]: 1.5 MMOL/KG DIET DAILY FOR 159 D STARTING 1 WK AFTER THE FINAL CARCINOGEN DOSE (STUDY DURATION: 216 D), Route [Inhibitor]: ORAL, Species: MOUSE, Strain/Sex: BDF/MALE, Target Tissue: Type of Lesion: URINARY BLADDER: TRANSITIONAL CELL CARCINOMA, Dose [Carcinogen]: 7.5 MG 1/WK FOR 8 WK, Promoter: NONE USED) and 29/98 (30%), 26/100 (26%), 13%, not significant (Carcinogen: N-BUTYL-N-(4-HYDROXYBUTYL)NITROSAMINE, 3817-11-6, Dose [Inhibitor]: 1.5 MMOL/KG/D IN DIET FOR 159 D STARTING 1 WK POST CARCINOGEN TREATMENT (STUDY DURATION: 216 D), Route [Inhibitor]: ORAL, Species: MOUSE, Strain/Sex: BDF/MALE, Target Tissue: Type of Lesion: URINARY BLADDER: TRANSITIONAL CELL CARCINOMA, Dose [Carcinogen]: 7.5 MG 1/WK FOR 8 WK, Promoter: NONE USED).
On to `CC(=O)O`, for which the “tumour outcome (control, treated, inhibition, significance)” value (Dose [Inhibitor]: 0, 60 UMOL (MG) INJECTED WITH CARCINOGEN INTO THIGH OF BOTH HIND LIMBS (STUDY DURATION: 79 WK), Route [Inhibitor]: INTRAMUSCULAR, Species: RAT, Strain/Sex: F344/MALE, Target Tissue: Type of Lesion: INJECTION SITE: SARCOMA, Dose [Carcinogen]: 2.5 MG PER SITE INJECTED INTO THIGH OF BOTH HIND LIMBS, Promoter: NONE USED) is 100%, 95%, 5%, not significant.
Turning to `Nc1ncn([C@@H]2O[C@H](CO)[C@@H](O)[C@H]2O)c(=O)n1`, the “tumour outcome (control, treated, inhibition, significance)” value (Carcinogen: DIETHYLNITROSAMINE, 55-18-5, Dose [Inhibitor]: 0, 5 MG/KG INJECTED 4, 24, AND 48 HR AFTER EACH CARCINOGEN EXPOSURE (STUDY DURATION: 6 MO), Route [Inhibitor]: INTRAPERITONEAL, Species: RAT, Strain/Sex: BD6/MALE, Target Tissue: Type of Lesion: ESOPHAGUS: TUMOR, Dose [Carcinogen]: 80 MG/KG 1/WK FOR 5 WK) is given as 4/29 (14%), 3/27 (11%), 21%, not calculated; the “tumour outcome (control, treated, inhibition, significance)” value (Carcinogen: DIETHYLNITROSAMINE, 55-18-5, Dose [Inhibitor]: 0, 5 MG/KG INJECTED 4, 24, AND 48 HR AFTER EACH CARCINOGEN EXPOSURE (STUDY DURATION: 6 MO), Route [Inhibitor]: INTRAPERITONEAL, Species: RAT, Strain/Sex: BD6/MALE, Target Tissue: Type of Lesion: LIVER: TUMOR, Dose [Carcinogen]: 80 MG/KG 1/WK FOR 5 WK) is on record as 15/29 (52%), 25/27 (93%), -79%, not calculated; the “tumour outcome (control, treated, inhibition, significance)” value (Carcinogen: DIETHYLNITROSAMINE, 55-18-5, Dose [Inhibitor]: 0, 10 MG/KG INJECTED 4, 24, AND 48 HR AFTER EACH CARCINOGEN EXPOSURE (STUDY DURATION: 6 MO), Route [Inhibitor]: INTRAPERITONEAL, Species: RAT, Strain/Sex: BD6/MALE, Target Tissue: Type of Lesion: ESOPHAGUS: TUMOR, Dose [Carcinogen]: 80 MG/KG 1/WK FOR 5 WK) was 4/29 (14%), 0/7 (0%), 100%, not calculated; the “tumour outcome (control, treated, inhibition, significance)” value (Carcinogen: DIETHYLNITROSAMINE, 55-18-5, Dose [Inhibitor]: 0, 10 MG/KG INJECTED 4, 24, AND 48 HR AFTER EACH CARCINOGEN EXPOSURE (STUDY DURATION: 6 MO), Route [Inhibitor]: INTRAPERITONEAL, Species: RAT, Strain/Sex: BD6/MALE, Target Tissue: Type of Lesion: LIVER: TUMOR, Dose [Carcinogen]: 80 MG/KG 1/WK FOR 5 WK) was 15/29 (52%), 6/7 (86%), -65%, not calculated.
